Earlier results in patent publication US20060035976A1, “Methods of preventing headaches with norepinephrine precursors” (priority 2002, published 2006).

What was measured:
[1] = system: microvessel preparations
[2] = system: migraine attacks; conditions: 100 mg/day; person with Parkinson's disease, concurrently on L-DOPA, benserazide and amantadine
[3] = system: pain; conditions: 100 mg; including a patient experiencing a cluster headache

Structure (SMILES) | time that increased plasma levels of DOPS and NE remain (after oral administration of DOPS) | time of peak NE levels (after oral ingestion of DOPS) | time of peak plasma levels of DOPS (after oral ingestion of DOPS) | specific uptake of DOPS [1] | migraine attacks (patient report) [2] | analgesic effects [3]
N[C@H](C(=O)O)[C@H](O)c1ccc(O)c(O)c1 [DOPS, Threo-3-(3,4-dihydroxyphenyl)serine] | at least 12 hours | 5 h | 3 h | Specific uptake of DOPS has also been demonstrated | – | –
N[C@H](C(=O)O)[C@H](O)c1ccc(O)c(O)c1 [L-DOPS] | – | – | – | – | migraine attacks were resolved | alleged analgesic effects
